For twelve compounds, EC50 results are on record in US20240270821A1, “GIP/GLP1/GCG TRI-RECEPTOR AGONISTS AND USES THEREOF” (priority 2023, published 2024).

Where two headings read alike, the source gives them in different places. Starred links: 1 amine or outer side, 2 acyl side, 3 side chain; linkers in the order of their positions; H or OH if unused. Non-standard residues stand in square brackets, D forms with d. Residues, ends and D or L forms follow the SMILES beside them. Groups on a side chain read outwards from the residue. No end group written: not given here. *: point of attachment. C20 diacid = O=C(O)CCCCCCCCCCCCCCCCCCC(=O)*; C18 diacid = O=C(O)CCCCCCCCCCCCCCCCC(=O)*; αMePhe(2-F) = C[C@](N)(Cc1ccccc1F)C(=O)O; γGlu = O=C(O)[C@H](CCC(=O)[*:2])N[*:1]; αMe4Pal = C[C@](N)(Cc1ccncc1)C(=O)O; αMeY = C[C@](N)(Cc1ccc(O)cc1)C(=O)O; 4Pal = N[C@@H](Cc1ccncc1)C(=O)O; αMeL = CC(C)C[C@](C)(N)C(=O)O; αMeS = C[C@](N)(CO)C(=O)O; Orn = NCCC[C@H](N)C(=O)O; AEEA = NCCOCCOCC(=O)O; Aib = CC(C)(N)C(=O)O

Type in all cases: cell-based
The target in test [1] is T1, hGIPR (Homo sapiens, UniProt P48546).
T1 sequence (P48546 22-466): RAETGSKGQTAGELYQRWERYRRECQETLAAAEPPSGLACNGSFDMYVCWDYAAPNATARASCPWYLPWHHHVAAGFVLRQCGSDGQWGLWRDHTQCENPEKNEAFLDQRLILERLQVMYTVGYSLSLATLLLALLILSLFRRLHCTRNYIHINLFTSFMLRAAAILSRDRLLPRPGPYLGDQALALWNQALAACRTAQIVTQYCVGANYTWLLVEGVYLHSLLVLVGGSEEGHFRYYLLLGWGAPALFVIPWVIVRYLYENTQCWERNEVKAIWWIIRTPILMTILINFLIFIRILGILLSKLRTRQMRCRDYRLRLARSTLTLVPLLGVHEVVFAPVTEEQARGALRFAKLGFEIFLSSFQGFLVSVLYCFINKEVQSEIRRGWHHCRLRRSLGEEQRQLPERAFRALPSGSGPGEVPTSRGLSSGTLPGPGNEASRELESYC
In words: Functional cAMP activity in the presence of 1% HSA. The conditions noted are these: read-out: cAMP Rel EC50, hGIPR.

Test [2] has as its target T2, hGLP-1R (Homo sapiens, UniProt P43220). The test is described as follows: Functional cAMP activity in the presence of 1% HSA. The following applies: read-out: cAMP Rel EC50, hGLP-1R.
A further test addresses human GcgR (Homo sapiens, UniProt P47871). The test is described as follows: Functional cAMP activity in the presence of 1% HSA. The conditions noted are these: read-out: cAMP Rel EC50, hGcgR.
Test [3] concerns the target T1, hGIPR. The test is described as follows: Functional cAMP activation in the presence of 0.1% casein (no HSA). The following applies: read-out: Relative cAMP EC50, hGIPR.
The target in test [4] is T2, hGLP-1R. The description is as above. The conditions noted are these: read-out: Relative cAMP EC50, hGLP-1R.
In another test the target is hGcgR (Homo sapiens, UniProt P47871). The test is described as above. The conditions noted are these: read-out: Relative cAMP EC50, hGcgR.
Setting [5] is: in the presence of 0.1% casein (no HSA), geometric mean.
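Wherever Relative cAMP EC50, hGIPR is given: intracellular cAMP rise after 30 min at 37 °C read by HTRF against a standard curve, scaled between buffer alone (0%) and top control ligand concentration (100%), four-parameter fit.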
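Wherever Relative cAMP EC50, hGLP-1R is given: intracellular cAMP rise after 30 min at 37 °C read by HTRF, normalized between buffer only (0%) and maximal control ligand (100%), four-parameter variable-slope fit.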
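Wherever Relative cAMP EC50, hGcgR is given: intracellular cAMP rise after 30 min at 37 °C, read by HTRF against a cAMP standard curve, scaled from buffer only (0%) to maximal control ligand response (100%).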

Chain of human GcgR (P47871 26-477): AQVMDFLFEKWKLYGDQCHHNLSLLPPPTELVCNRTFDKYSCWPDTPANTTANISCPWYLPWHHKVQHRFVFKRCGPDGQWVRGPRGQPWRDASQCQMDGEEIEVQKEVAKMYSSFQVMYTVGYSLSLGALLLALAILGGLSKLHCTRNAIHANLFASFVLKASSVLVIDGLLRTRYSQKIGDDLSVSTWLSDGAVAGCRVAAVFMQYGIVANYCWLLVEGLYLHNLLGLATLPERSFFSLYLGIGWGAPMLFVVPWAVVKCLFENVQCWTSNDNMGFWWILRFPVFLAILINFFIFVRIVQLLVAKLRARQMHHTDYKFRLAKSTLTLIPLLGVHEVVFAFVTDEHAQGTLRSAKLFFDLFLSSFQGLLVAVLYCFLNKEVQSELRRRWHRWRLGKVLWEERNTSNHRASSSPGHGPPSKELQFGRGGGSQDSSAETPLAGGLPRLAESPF
Chain of hGcgR (P47871 26-477): as above
T2 sequence (P43220 24-463): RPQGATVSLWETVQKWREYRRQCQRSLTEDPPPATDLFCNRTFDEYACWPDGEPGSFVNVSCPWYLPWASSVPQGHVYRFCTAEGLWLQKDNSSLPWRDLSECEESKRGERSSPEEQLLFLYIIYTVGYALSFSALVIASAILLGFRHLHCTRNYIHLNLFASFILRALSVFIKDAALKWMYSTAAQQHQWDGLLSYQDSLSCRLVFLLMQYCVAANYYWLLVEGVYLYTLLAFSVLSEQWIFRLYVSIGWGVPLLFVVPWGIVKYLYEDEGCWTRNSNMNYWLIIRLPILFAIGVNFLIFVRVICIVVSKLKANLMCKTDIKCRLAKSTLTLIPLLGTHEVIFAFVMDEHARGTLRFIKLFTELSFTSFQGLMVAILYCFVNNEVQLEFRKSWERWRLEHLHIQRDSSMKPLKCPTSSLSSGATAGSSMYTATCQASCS

As a reminder, the EC50 is the concentration giving half of the maximal effect. Consider `CC[C@H](C)[C@H](NC(=O)[C@H](Cc1ccccc1)NC(=O)[C@H](C)NC(=O)C(C)(C)NC(=O)[C@H](CCC(N)=O)NC(=O)[C@H](C)NC(=O)[C@H](CCCCNC(=O)COCCOCCNC(=O)COCCOCCNC(=O)CC[C@H](NC(=O)CCCCCCCCCCCCCCCCC(=O)O)C(=O)O)NC(=O)[C@H](CCCCN)NC(=O)[C@H](CC(=O)O)NC(=O)[C@H](CC(C)C)NC(=O)[C@H](CC(C)C)NC(=O)[C@@H](NC(=O)[C@](C)(CO)NC(=O)[C@H](Cc1ccc(O)cc1)NC(=O)[C@H](CC(=O)O)NC(=O)[C@H](CO)NC(=O)[C@@H](NC(=O)[C@](C)(Cc1ccccc1F)NC(=O)[C@@H](NC(=O)CNC(=O)[C@H](CCC(N)=O)NC(=O)C(C)(C)NC(=O)[C@@H](N)Cc1ccc(O)cc1)[C@@H](C)O)[C@@H](C)O)[C@@H](C)CC)C(=O)N[C@@H](CCC(=O)O)C(=O)N[C@@H](Cc1ccc(O)cc1)C(=O)N[C@@H](CC(C)C)C(=O)N[C@@H](CCC(=O)O)C(=O)N[C@@H](CCC(=O)O)C(=O)NCC(=O)NCC(=O)N1CCC[C@H]1C(=O)N[C@@H](CO)C(=O)N[C@@H](CO)C(=O)NCC(=O)N[C@@H](CCC(=O)O)C(=O)N1CCC[C@H]1C(=O)N1CCC[C@H]1C(=O)N1CCC[C@H]1C(=O)N[C@@H](CCC(=O)O)C(N)=O` [Example 469] (H-Y[Aib]QGT[αMePhe(2-F)]TSDY[αMeS]ILLDKK([AEEA-AEEA-γGlu-C18 diacid])AQ[Aib]AFIEYLEEGGPSSGEPPPE-NH2), for which the half-maximal effective concentration (EC50) was determined as 4.24 nM at hGIPR [1]; 61.7 nM on hGLP-1R [2]; 155 nM at human GcgR; 0.031 nM at hGIPR [3]; 0.562 nM on hGLP-1R [4]; 1.34 nM at hGcgR.

“Y[Aib]QGT[αMePhe(2-F)]TSDYSILLDKK([γGlu-γGlu-C18 diacid])AQ[Aib]AFIEYLEEGGPSSGAPPPSGE-NH2 [Example 435]”: the EC50 on hGIPR [1] was 10.3 nM; on hGLP-1R [2] it was 33.6 nM; at human GcgR, 334 nM; on hGIPR [3] it was 0.0239 nM; at hGLP-1R [4], 0.311 nM; on hGcgR, 3.01 nM.

Consider “H-Y[Aib]QGT[αMePhe(2-F)]TSD[4Pal][αMeS]I[αMeL]LD[Orn]K([AEEA-γGlu-C18 diacid])AQ[αMe4Pal]EFI[dE][αMeY]LVEGGPSSGEPPPSGSE-NH2 [Example 752]”, for which the half-maximal effective concentration (EC50) on hGIPR [1] stood at 1.74 nM; on hGLP-1R [2], 44 nM; at human GcgR it was 228 nM; at hGIPR [3] it was 0.00689 nM; at hGLP-1R [4] it was 0.274 nM; at hGcgR, 1.9 nM.

Regarding “H-Y[Aib]QGTFTSDFS[Orn][αMeL]LDKK([AEEA-γGlu-C18 diacid])AQ[Aib]AFIEYLLE[dA]GHSSGAPPPSGE-NH2 [Example 207]”, the EC50 at hGIPR [1] came to 15.2 nM; on hGLP-1R [2], 225 nM; on human GcgR, 770 nM; on hGIPR [3] (setting [5]) it was 0.321 nM; on hGLP-1R [4] (setting [5]), 4.36 nM; on hGcgR (setting [5]) it was 4.24 nM.

For `CC[C@H](C)[C@H](NC(=O)[C@H](CCCCN)NC(=O)[C@H](CC(=O)O)NC(=O)[C@H](CC(C)C)NC(=O)[C@H](CC(C)C)NC(=O)[C@@H](NC(=O)[C@H](CO)NC(=O)[C@H](Cc1ccc(O)cc1)NC(=O)[C@H](CC(=O)O)NC(=O)[C@H](CO)NC(=O)[C@@H](NC(=O)[C@](C)(Cc1ccccc1F)NC(=O)[C@@H](NC(=O)CNC(=O)[C@H](CCC(N)=O)NC(=O)C(C)(C)NC(=O)[C@@H](N)Cc1ccc(O)cc1)[C@@H](C)O)[C@@H](C)O)[C@@H](C)CC)C(=O)N[C@@H](C)C(=O)N[C@@H](CCC(N)=O)C(=O)NC(C)(C)C(=O)N[C@@H](C)C(=O)N[C@@H](Cc1ccccc1)C(=O)N[C@H](C(=O)N[C@@H](CCCCNC(=O)COCCOCCNC(=O)CC[C@H](NC(=O)CCCCCCCCCCCCCCCCC(=O)O)C(=O)O)C(=O)N[C@@H](Cc1ccc(O)cc1)C(=O)N[C@@H](CC(C)C)C(=O)N[C@@H](CCC(=O)O)C(=O)N[C@@H](CCC(=O)O)C(=O)NCC(=O)NCC(=O)N1CCC[C@H]1C(=O)N[C@@H](CO)C(=O)N[C@@H](CO)C(=O)NCC(=O)N[C@@H](C)C(=O)N1CCC[C@H]1C(=O)N1CCC[C@H]1C(=O)N1CCC[C@H]1C(=O)N[C@@H](CO)C(N)=O)[C@@H](C)CC` [Example 430] (H-Y[Aib]QGT[αMePhe(2-F)]TSDYSILLDKIAQ[Aib]AFIK([AEEA-γGlu-C18 diacid])YLEEGGPSSGAPPPS-NH2; N-terminus assumed), the EC50 on hGIPR [1] was found to be 4.65 nM; at hGLP-1R [2] it was 78.9 nM; on human GcgR, 559 nM; at hGIPR [3], 0.0144 nM; at hGLP-1R [4], 0.438 nM; on hGcgR it was 2.11 nM.

On to “H-Y[Aib]QGT[αMePhe(2-F)]TSD[4Pal]SILLDKK([γGlu-γGlu-C18 diacid])AQ[Aib]AFIEYLEEGGPSSGAPPPSGEGE-NH2 [Example 621]”, for which the concentration giving a half-maximal response (EC50) on hGIPR [1] stood at 7.31 nM; at hGLP-1R [2], 111 nM; on human GcgR, 901 nM; at hGIPR [3], 0.0661 nM; at hGLP-1R [4], 1.28 nM; on hGcgR, 6.81 nM.

For the compound “H-Y[Aib]QGT[αMePhe(2-F)]TSD[4Pal]SI[αMeL]LD[Orn]K([AEEA-γGlu-C18 diacid])AQ[αMe4Pal][Orn]FI[dE][αMeY]LIEGGPSSGAPPPESE-NH2 [Example 755]”, the EC50 at hGIPR [1] stood at 1.39 nM; at hGLP-1R [2] it was 23.9 nM; on human GcgR, 274 nM; at hGIPR [3], 0.00805 nM; on hGLP-1R [4], 0.175 nM; at hGcgR, 2.31 nM.

Consider “Y[Aib]QGTFTSDFSK[αMeL]LDKK([AEEA-γGlu-C18 diacid])AQ[Aib]AFIEYLIE[Aib]GPSSGAPPPSGS-NH2 [Example 797]”, for which the EC50 at hGIPR [1] worked out at 16.7 nM; at hGLP-1R [2], 102 nM; at human GcgR, 963 nM; on hGIPR [3] (setting [5]), 0.0781 nM; on hGLP-1R [4] (setting [5]) it was 0.449 nM; on hGcgR (setting [5]), 3.78 nM.

Regarding “H-Y[Aib]QGT[αMePhe(2-F)]TSD[4Pal]SI[αMeL]LD[Orn]K([AEEA-γGlu-C18 diacid])AQ[αMe4Pal][Orn]FI[dE][αMeY]LIEGGPSSGDPPPEGE-NH2 [Example 727]”, the EC50 at hGIPR [1] was 1.09 nM; at hGLP-1R [2] it was 24.1 nM; on human GcgR, 287 nM; at hGIPR [3], 0.0109 nM; at hGLP-1R [4] it was 0.271 nM; on hGcgR it was 2.38 nM.

Regarding “H-Y[Aib]QGTFTSDFS[Orn][αMeL]LDKK([AEEA-γGlu-C18 diacid])AQ[Aib]AFIEWLLEGGHSSGEPPPEGS-NH2 [Example 127]”, the EC50 at hGIPR [1] turned out to be 62.9 nM; at hGLP-1R [2], 1000 nM; at human GcgR, 1010 nM; at hGIPR [3] (setting [5]), 0.312 nM; on hGLP-1R [4] (setting [5]), 4.8 nM; on hGcgR (setting [5]), 4.35 nM.

Regarding “Y[Aib]QGT[αMePhe(2-F)]TSDYSILLDAQAAK([AEEA-γGlu-C20 diacid])EFIEYLIEGGPSSGEPPPSEG-NH2 [Example 351]”, the EC50 was found to be 57.5 nM on hGIPR [1]; 272 nM on hGLP-1R [2]; 2470 nM on human GcgR; 0.243 nM on hGIPR [3] (setting [5]); 0.679 nM at hGLP-1R [4] (setting [5]); 12.1 nM at hGcgR (setting [5]).

Consider “H-Y[Aib]QGTFTSDFSK[αMeL]LDKK([AEEA-AEEA-γGlu-C18 diacid])AQ[Aib]AFIEYLLEGGESSGAPPPSGS-NH2 [Example 147]”, for which the half-maximal effective concentration (EC50) at hGIPR [1] is 108 nM; at hGLP-1R [2] it was 964 nM; at human GcgR it was 877 nM; at hGIPR [3] (setting [5]) it was 0.343 nM; at hGLP-1R [4] (setting [5]), 4.26 nM; at hGcgR (setting [5]), 4.39 nM.
